How the values were obtained:
Format in all cases: biochemical
[1] = molecular target: activated protein C (APC) (Homo sapiens, UniProt P04070); assay: Fluorogenic enzyme assay (Example 5); set-up: key to Kinetic constants, APC (symbol b): slow substrate hydrolysis, no kinetic constants calculated
Outline: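 Fluorogenic substrate was diluted into 20 mM Tris, 150 mM NaCl, pH 7.4, enzyme added at room temperature (22° C), and fluorescence at 470 nm (excitation 352 nm) monitored to give initial rates. Rates were converted via a fluorophore standard curve and fitted for Km and kcat.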

[2] = molecular target: T1, factor VIIa (Homo sapiens, UniProt P08709); assay: Fluorogenic enzyme assay, relative hydrolysis rates (Table 8); conditions: 10 nM enzyme, substrate 1 μM
T1 construct: directly measure the enzymatic activity of factor VIIa in the presence and absence of tissue factor and phospholipid
T1 sequence (P08709 213-466 limits assumed): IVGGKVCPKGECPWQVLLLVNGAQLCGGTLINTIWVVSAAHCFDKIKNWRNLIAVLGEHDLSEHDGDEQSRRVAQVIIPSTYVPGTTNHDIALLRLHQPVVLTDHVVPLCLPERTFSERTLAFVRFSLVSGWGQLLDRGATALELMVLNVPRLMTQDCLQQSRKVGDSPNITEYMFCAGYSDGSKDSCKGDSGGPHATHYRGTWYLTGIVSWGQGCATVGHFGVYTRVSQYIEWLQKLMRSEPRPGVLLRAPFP
T1 sequence (P08709 61-212 limits assumed): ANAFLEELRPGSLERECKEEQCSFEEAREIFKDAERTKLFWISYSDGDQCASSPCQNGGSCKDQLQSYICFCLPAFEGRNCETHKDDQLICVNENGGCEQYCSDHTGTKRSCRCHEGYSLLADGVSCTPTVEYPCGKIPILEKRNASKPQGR

[3] = molecular target: T1, factor VIIa; assay: Factor VIIa substrate hydrolysis in presence and absence of tissue factor (FIG. 2)
Excerpt: (§1) When coupled to methanesulfonyl-D-leucinyl-glycinyl-arginine(Mes-D-Leu-Gly-Arg), 6-amino-1-(N,N-diethyl)napthalenesulfonamide the resulting substrate yielded significant reactivity with factor VIIa. This substrate was sufficiently reactive with factor VIIa to allow reliable quantitation of factor VIIa activity at concentrations of about 10^-9 M. Further, this substrate was useful for the measurement of factor VIIa activity when it was bound to its co-factor protein tissue factor. The interaction of tissue factor with factor VIIa enhanced the factor VIIa dependent substrate hydrolysis by 120 fold. Thus, the invention provides unique substrates suitable for measuring both the activity of factor VIIa directly and in complex reactions involving the interaction between tissue factor and factor VIIa.
(§2) The binding of factor VIIa to tissue factor was analyzed by factor VIIa substrate hydrolysis when complexed with tissue factor. Tissue factor was relipidated into PC or PCPS vesicles as described above. The final concentration of tissue factor and phospholipid used for all binding studies was 2 nM and 200 μM respectively. In control experiments where tissue factor was in excess, 50 nM tissue factor and 200 μM PCPS vesicles were used. Recombinant factor VIIa (0.5 to 20 nM) was added to assembled TF/phospholipid complex and incubated for 15 minutes at 37° C. in HBS. The reaction was started by the addition of substrate (40 μM final) and the rate of substrate hydrolysis as reported by an increase in fluorescent intensity was recorded as described above in Example 5. The instrument was standardized daily using a 1 μM stock of the 6-amino-1-(N,N-diethyl)napthalenesulfonamide in HBS at 37° C. as described above.
(§3) The increase in the rate of factor VIIa substrate hydrolysis, both in the presence and absence of tissue factor, is linear over the concentration range tested, as shown in FIG. 2. […] In FIG. 2, filled triangles represent the rate of substrate hydrolysis as a function of increasing factor VIIa concentrations with an excess of tissue factor ([…]) in the assay. […]

[4] = test system: factor VIIa; assay: as above; conditions: with vs without tissue factor
Excerpt: as §1, §2, §3

Sequence of activated protein C (APC) (P04070 212-461 limits assumed): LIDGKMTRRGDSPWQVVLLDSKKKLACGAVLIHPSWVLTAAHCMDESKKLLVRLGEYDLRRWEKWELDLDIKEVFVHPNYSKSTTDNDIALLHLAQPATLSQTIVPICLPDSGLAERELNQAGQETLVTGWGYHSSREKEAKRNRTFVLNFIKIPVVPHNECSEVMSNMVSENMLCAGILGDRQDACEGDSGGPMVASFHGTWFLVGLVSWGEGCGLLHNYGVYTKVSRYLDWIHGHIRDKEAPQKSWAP
Sequence of activated protein C (APC) (P04070 43-197 limits assumed): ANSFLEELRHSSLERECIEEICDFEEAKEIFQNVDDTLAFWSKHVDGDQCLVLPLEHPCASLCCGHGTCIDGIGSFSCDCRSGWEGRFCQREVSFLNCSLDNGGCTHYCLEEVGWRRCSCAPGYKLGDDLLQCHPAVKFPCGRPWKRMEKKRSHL

TIME TO 10% HYDROLYSIS (HOURS), APC ([1]; 100 nM enzyme (footnote b), substrate 1 μM): 0.5 h
Kinetic constants, APC (symbol b) ([1]; Table 9): b
TIME TO 10% HYDROLYSIS (HOURS), VIIa [2]: 4 h
factor VIIa concentration allowing reliable quantitation of factor VIIa activity [3]: about 10^-9 M
Structure (SMILES): CCN(CC)S(=O)(=O)c1cccc2cc(NC(=O)[C@H](CCCNC(=N)N)NC(=O)CNC(=O)[C@@H](CC(C)C)NS(C)(=O)=O)ccc12 [MesD-LPR-ANSN(C2 H5)2, 6-(Mes-D-Leu-Gly-Arg)amino-1-(N,N-diethyl)napththalenesulfonamide]
enhancement of factor VIIa dependent substrate hydrolysis by tissue factor ([4]; listed as 6-(Mes-D-Leu-Gly-Arg)amino-1-(N,N-diethyl)naphthalenesulfonamide): 120 fold
enhancement of factor VIIa dependent substrate hydrolysis by tissue factor ([4]; listed as factor VIIa substrate): > 100 fold
